Measurements: PMC5218480 (PLoS ONE, 2017)

Tested on: MV-4-11 cells
Test: Gene expression microarray analysis (Affymetrix PrimeView) and GSEA
Format: cell-based, human
Design: RFU PODN (11730768_x_at) / Fold change /veh PODN (11730768_x_at) / RFU LINC00158 (11744669_a_at) / Fold change /veh LINC00158 (11744669_a_at) / RFU DUSP10 (11751237_a_at) / Fold change /veh DUSP10 (11751237_a_at) / RFU ID3 (11757404_x_at) / Fold change /veh ID3 (11757404_x_at) / RFU PLEKHG5 (11737974_s_at) / Fold change /veh PLEKHG5 (11737974_s_at) / RFU LRRC4B (11730491_at) / Fold change /veh LRRC4B (11730491_at) / RFU GIMAP4 (11747438_a_at) / Fold change /veh GIMAP4 (11747438_a_at) / RFU KRT8 (11758183_x_at) / Fold change /veh KRT8 (11758183_x_at) / RFU CNN1 (11734310_a_at) / Fold change /veh CNN1 (11734310_a_at) / RFU VPS37D (11726825_at) / Fold change /veh VPS37D (11726825_at) / RFU C10orf10 (11716522_x_at) / Fold change /veh C10orf10 (11716522_x_at) / RFU KIR2DL2 /// KIR2DL4 /// KIR2DL5A /// KIR2DL5B /// KIR2DS1 /// KIR2DS2 /// KIR2DS3 /// KIR2DS4 /// KIR3DL3 /// KIR3DL3 /// KIR3DS1 (11738374_at) / Fold change /veh KIR2DL2 /// KIR2DL4 /// KIR2DL5A /// KIR2DL5B /// KIR2DS1 /// KIR2DS2 /// KIR2DS3 /// KIR2DS4 /// KIR3DL3 /// KIR3DL3 /// KIR3DS1 (11738374_at) / RFU C1QL1 (11718748_at) / Fold change /veh C1QL1 (11718748_at) / RFU TMPRSS4 (11747572_a_at) / Fold change /veh TMPRSS4 (11747572_a_at) / RFU HAMP (11756126_x_at) / Fold change /veh HAMP (11756126_x_at) / RFU RNFT2 (11725882_a_at) / Fold change /veh RNFT2 (11725882_a_at) / RFU NR4A2 (11747474_a_at) / Fold change /veh NR4A2 (11747474_a_at) / RFU ABCC12 (11746883_a_at) / Fold change /veh ABCC12 (11746883_a_at) / RFU TMEM136 (11760407_x_at) / Fold change /veh TMEM136 (11760407_x_at) / RFU CLDN22 /// WWC2 (11732394_at) / Fold change /veh CLDN22 /// WWC2 (11732394_at) / RFU HLA-DPB1 (11760878_x_at) / Fold change /veh HLA-DPB1 (11760878_x_at) / RFU SPINT1 (11716480_a_at) / Fold change /veh SPINT1 (11716480_a_at) / RFU GAP43 (11754022_s_at) / Fold change /veh GAP43 (11754022_s_at) / RFU A4GNT (11735810_at) / Fold change /veh A4GNT (11735810_at) / RFU PRB3 (11715151_x_at) / Fold change /veh PRB3 (11715151_x_at) / RFU TUBB4B (11761932_at) / Fold change /veh TUBB4B (11761932_at) / RFU CAPN14 (11732068_a_at) / Fold change /veh CAPN14 (11732068_a_at) / RFU TMCC2 (11721928_a_at) / Fold change /veh TMCC2 (11721928_a_at) / RFU IRGQ (11745062_a_at) / Fold change /veh IRGQ (11745062_a_at) / RFU FAM174B (11720279_a_at) / Fold change /veh FAM174B (11720279_a_at) / RFU TMPRSS4 (11748680_a_at) / Fold change /veh TMPRSS4 (11748680_a_at) / RFU FAM212B (11763350_a_at) / Fold change /veh FAM212B (11763350_a_at) / RFU PLEKHG5 (11743358_a_at) / Fold change /veh PLEKHG5 (11743358_a_at) / RFU ZSCAN30 (11745921_a_at) / Fold change /veh ZSCAN30 (11745921_a_at) / RFU CMKLR1 (11741424_a_at) / Fold change /veh CMKLR1 (11741424_a_at) / RFU LOC101060620 /// MAPK8IP1 (11723275_at) / Fold change /veh LOC101060620 /// MAPK8IP1 (11723275_at) / RFU SPTSSB (11747773_x_at) / Fold change /veh SPTSSB (11747773_x_at) / RFU PRSS12 (11739890_at) / Fold change /veh PRSS12 (11739890_at) / RFU BIN1 (11741810_x_at) / Fold change /veh BIN1 (11741810_x_at) / RFU WNT11 (11732464_a_at) / Fold change /veh WNT11 (11732464_a_at) / RFU C10orf10 (11716521_a_at) / Fold change /veh C10orf10 (11716521_a_at) / RFU C5orf56 (11738089_at) / Fold change /veh C5orf56 (11738089_at) / RFU CYB561 (11721691_x_at) / Fold change /veh CYB561 (11721691_x_at) / RFU ANKRD19P (11752326_a_at) / Fold change /veh ANKRD19P (11752326_a_at) / RFU OR2T12 /// OR2T33 /// OR2T8 (11738714_s_at) / Fold change /veh OR2T12 /// OR2T33 /// OR2T8 (11738714_s_at) / RFU VCAN (11748164_a_at) / Fold change /veh VCAN (11748164_a_at) / RFU JSRP1 (11732532_at) / Fold change /veh JSRP1 (11732532_at) / RFU KRTAP10-11 (11738290_x_at) / Fold change /veh KRTAP10-11 (11738290_x_at) / RFU MYO3A (11730013_a_at) / Fold change /veh MYO3A (11730013_a_at) / RFU EBF3 (11725865_a_at) / Fold change /veh EBF3 (11725865_a_at) / RFU CAMK2N1 (11719241_x_at) / Fold change /veh CAMK2N1 (11719241_x_at) / RFU C5orf56 (11738088_a_at) / Fold change /veh C5orf56 (11738088_a_at) / RFU OLFML3 (11715873_a_at) / Fold change /veh OLFML3 (11715873_a_at) / RFU LOC100653217 /// NTM (11731650_a_at) / Fold change /veh LOC100653217 /// NTM (11731650_a_at) / RFU MAPK11 (11762145_a_at) / Fold change /veh MAPK11 (11762145_a_at) / RFU FIZ1 (11724087_x_at) / Fold change /veh FIZ1 (11724087_x_at) / RFU OASL (11726364_x_at) / Fold change /veh OASL (11726364_x_at) / RFU SOX15 (11748057_x_at) / Fold change /veh SOX15 (11748057_x_at) / RFU CD79A (11719716_a_at) / Fold change /veh CD79A (11719716_a_at) / RFU HIST1H1D (11736915_at) / Fold change /veh HIST1H1D (11736915_at) / RFU CASKIN2 (11723855_a_at) / Fold change /veh CASKIN2 (11723855_a_at) / RFU LOC730098 (11760151_x_at) / Fold change /veh LOC730098 (11760151_x_at) / RFU OR4N2 (11742367_at) / Fold change /veh OR4N2 (11742367_at) / RFU PRRT2 (11749266_a_at) / Fold change /veh PRRT2 (11749266_a_at) / RFU SNX32 (11753110_a_at) / Fold change /veh SNX32 (11753110_a_at) / RFU CDHR5 (11726645_a_at) / Fold change /veh CDHR5 (11726645_a_at) / RFU RCAN1 (11760418_a_at) / Fold change /veh RCAN1 (11760418_a_at) / RFU FAM167A (11723789_a_at) / Fold change /veh FAM167A (11723789_a_at) / RFU FAM26E (11764081_at) / Fold change /veh FAM26E (11764081_at) / RFU ISYNA1 (11749810_s_at) / Fold change /veh ISYNA1 (11749810_s_at) / RFU ACY1 (11761880_at) / Fold change /veh ACY1 (11761880_at) / RFU 11764098_at / Fold change /veh 11764098_at / RFU SAMD14 (11745864_x_at) / Fold change /veh SAMD14 (11745864_x_at) / RFU NPB (11741838_a_at) / Fold change /veh NPB (11741838_a_at) / RFU TMPRSS6 (11731388_a_at) / Fold change /veh TMPRSS6 (11731388_a_at) / RFU KRTAP10-2 (11738614_at) / Fold change /veh KRTAP10-2 (11738614_at) / RFU ARHGAP8 /// PRR5-ARHGAP8 (11727945_x_at) / Fold change /veh ARHGAP8 /// PRR5-ARHGAP8 (11727945_x_at) / RFU KRTAP5-7 /// NADSYN1 (11734609_at) / Fold change /veh KRTAP5-7 /// NADSYN1 (11734609_at) / RFU RASL12 (11751679_a_at) / Fold change /veh RASL12 (11751679_a_at) / RFU CDKN2B (11736163_a_at) / Fold change /veh CDKN2B (11736163_a_at) / RFU PRF1 (11729649_at) / Fold change /veh PRF1 (11729649_at) / RFU, ZNF638 /// ZNF638-IT1 / Fold change vs veh, ZNF638 /// ZNF638-IT1 / RFU, PANK3 / Fold change vs veh, PANK3 / RFU, SH3YL1 / Fold change vs veh, SH3YL1 / RFU, ZEB2 / Fold change vs veh, ZEB2 / RFU, NRIP1 / Fold change vs veh, NRIP1 / RFU, PTTG1IP / Fold change vs veh, PTTG1IP / RFU, CAPN2 / Fold change vs veh, CAPN2 / RFU, MED14 / Fold change vs veh, MED14 / RFU, SNORA58 / Fold change vs veh, SNORA58 / RFU, C1orf63 / Fold change vs veh, C1orf63 / RFU, LRRFIP1 / Fold change vs veh, LRRFIP1 / RFU, NDUFAF7 / Fold change vs veh, NDUFAF7 / RFU, SLC12A2 / Fold change vs veh, SLC12A2 / RFU, IBTK / Fold change vs veh, IBTK / RFU, ESF1 / Fold change vs veh, ESF1 / Fold change vs veh, TMEM50B / RFU, TAOK1 / Fold change vs veh, TAOK1 / RFU, ACBD3 / Fold change vs veh, ACBD3 / RFU, TMA16 / Fold change vs veh, TMA16 / RFU, RWDD3 / Fold change vs veh, RWDD3 / RFU, BCAT1 / Fold change vs veh, BCAT1 / RFU, EDEM3 / Fold change vs veh, EDEM3 / RFU, TMEM33 / Fold change vs veh, TMEM33 / RFU, WDR75 / Fold change vs veh, WDR75 / RFU, AHCTF1 / Fold change vs veh, AHCTF1 / RFU, TFRC / Fold change vs veh, TFRC / RFU, ZDHHC17 / Fold change vs veh, ZDHHC17 / RFU, NOM1 / Fold change vs veh, NOM1 / RFU, ARL8B / Fold change vs veh, ARL8B / RFU, ZBTB11 / Fold change vs veh, ZBTB11 / RFU, TAMM41 / Fold change vs veh, TAMM41 / RFU, KIAA1704 /// LOC100996395 / Fold change vs veh, KIAA1704 /// LOC100996395 / RFU, ING1 / Fold change vs veh, ING1 / RFU, TRMT61B / Fold change vs veh, TRMT61B / RFU, FUBP3 / Fold change vs veh, FUBP3 / RFU, TP53 / Fold change vs veh, TP53 / RFU, TNKS2 / Fold change vs veh, TNKS2 / RFU, ZFP14 / Fold change vs veh, ZFP14 / RFU, ACTR2 / Fold change vs veh, ACTR2 / RFU, PPP3R1 / Fold change vs veh, PPP3R1 / RFU, PIK3R1 / Fold change vs veh, PIK3R1 / RFU, HNRNPA1 / Fold change vs veh, HNRNPA1 / RFU, RNF170 / Fold change vs veh, RNF170 / RFU, ZNF28 / Fold change vs veh, ZNF28 / RFU, RNGTT / Fold change vs veh, RNGTT / RFU, OGT / Fold change vs veh, OGT / RFU, BRD1 / Fold change vs veh, BRD1 / RFU, MARS / Fold change vs veh, MARS / RFU, ZNF655 / Fold change vs veh, ZNF655 / RFU, FAHD1 / Fold change vs veh, FAHD1 / RFU, BDP1 / Fold change vs veh, BDP1 / RFU, LRRCC1 / Fold change vs veh, LRRCC1 / RFU, ARID1A / Fold change vs veh, ARID1A / RFU, ZNF146 / Fold change vs veh, ZNF146 / RFU, ZNF330 / Fold change vs veh, ZNF330 / RFU, GPN3 / Fold change vs veh, GPN3 / RFU, C9orf123 / Fold change vs veh, C9orf123 / RFU, N4BP2L2 / Fold change vs veh, N4BP2L2 / RFU, ARFIP1 / Fold change vs veh, ARFIP1 / RFU, FAM179B / Fold change vs veh, FAM179B / RFU, BCL10 / Fold change vs veh, BCL10 / RFU, UHRF1BP1L / Fold change vs veh, UHRF1BP1L / RFU, BET1 / Fold change vs veh, BET1 / RFU, CNOT2 / Fold change vs veh, CNOT2 / RFU, ZNF268 / Fold change vs veh, ZNF268 / Fold change vs veh, ZNF507 / RFU, DGCR2 / Fold change vs veh, DGCR2 / RFU, WDSUB1 / Fold change vs veh, WDSUB1 / Fold change vs veh, HSP90B1 /// MIR3652 / RFU, ADSS / Fold change vs veh, ADSS / RFU, GK / Fold change vs veh, GK / RFU, ZNF148 / Fold change vs veh, ZNF148 / RFU, TAF9 / Fold change vs veh, TAF9 / RFU, SLC1A5 / Fold change vs veh, SLC1A5 / RFU, SLMO2 / Fold change vs veh, SLMO2 / RFU, ABCC4 / Fold change vs veh, ABCC4 / RFU, LOC101060439 /// RAP1B / Fold change vs veh, LOC101060439 /// RAP1B / RFU, RFX7 / Fold change vs veh, RFX7 / RFU, GTPBP10 / Fold change vs veh, GTPBP10 / RFU, CNEP1R1 / Fold change vs veh, CNEP1R1 / RFU, BIVM-ERCC5 /// ERCC5 / Fold change vs veh, BIVM-ERCC5 /// ERCC5 / RFU, ILF3 / Fold change vs veh, ILF3 / RFU 11762660_at / Fold change /veh 11762660_at / RFU VCAN (11757783_s_at) / Fold change /veh VCAN (11757783_s_at) / RFU DDX43 (11728927_at) / Fold change /veh DDX43 (11728927_at) / RFU KRT8 (11758188_x_at) / Fold change /veh KRT8 (11758188_x_at) / RFU NKD1 (11759106_at) / Fold change /veh NKD1 (11759106_at) / RFU SRD5A1 (11742802_a_at) / Fold change /veh SRD5A1 (11742802_a_at) / RFU TPSAB1 /// TPSB2 (11721975_s_at) / Fold change /veh TPSAB1 /// TPSB2 (11721975_s_at) / RFU GSTM3 (11746129_a_at) / Fold change /veh GSTM3 (11746129_a_at) / RFU IL23R (11737362_x_at) / Fold change /veh IL23R (11737362_x_at) / RFU TMEM51 (11727254_a_at) / Fold change /veh TMEM51 (11727254_a_at) / RFU PIWIL2 (11732686_x_at) / Fold change /veh PIWIL2 (11732686_x_at) / RFU ORM1 (11744905_x_at) / Fold change /veh ORM1 (11744905_x_at) / RFU CCDC152 (11743942_at) / Fold change /veh CCDC152 (11743942_at) / RFU ECM1 (11717891_a_at) / Fold change /veh ECM1 (11717891_a_at) / RFU IL23R (11748794_a_at) / Fold change /veh IL23R (11748794_a_at) / RFU TNFAIP8L3 (11732012_x_at) / Fold change /veh TNFAIP8L3 (11732012_x_at) / RFU MBOAT4 (11741988_at) / Fold change /veh MBOAT4 (11741988_at) / RFU 11764193_at / Fold change /veh 11764193_at / RFU TMEM53 (11763286_at) / Fold change /veh TMEM53 (11763286_at) / RFU MAGEB2 (11727129_at) / Fold change /veh MAGEB2 (11727129_at) / RFU TMEM200A (11744735_a_at) / Fold change /veh TMEM200A (11744735_a_at) / RFU CCDC152 (11751479_a_at) / Fold change /veh CCDC152 (11751479_a_at) / RFU FAM211A (11726209_a_at) / Fold change /veh FAM211A (11726209_a_at) / RFU RGS16 (11746705_a_at) / Fold change /veh RGS16 (11746705_a_at) / RFU VCAN (11755009_s_at) / Fold change /veh VCAN (11755009_s_at) / RFU RHOB (11743442_s_at) / Fold change /veh RHOB (11743442_s_at) / RFU RGS16 (11720943_a_at) / Fold change /veh RGS16 (11720943_a_at) / RFU RGS16 (11720944_at) / Fold change /veh RGS16 (11720944_at) / RFU, VPS4B / Fold change vs veh, VPS4B / RFU, CREB1 / Fold change vs veh, CREB1 / RFU, DNAJC13 / Fold change vs veh, DNAJC13 / RFU, GNAQ / Fold change vs veh, GNAQ / RFU, CDK5R1 / Fold change vs veh, CDK5R1 / RFU, ZRANB3 / Fold change vs veh, ZRANB3 / RFU, CUL4A / Fold change vs veh, CUL4A / RFU, CCNY / Fold change vs veh, CCNY / RFU, UFL1 / Fold change vs veh, UFL1 / RFU, COG3 / Fold change vs veh, COG3 / RFU, DIAPH2 / Fold change vs veh, DIAPH2 / RFU, SKA2 / Fold change vs veh, SKA2 / RFU, AFF3 / Fold change vs veh, AFF3 / RFU, LMF1 / Fold change vs veh, LMF1 / RFU, IPO11 / Fold change vs veh, IPO11 / RFU, DFFB / Fold change vs veh, DFFB / RFU, FOXP1 / Fold change vs veh, FOXP1 / RFU, CARD8 / Fold change vs veh, CARD8 / RFU, STRN3 / Fold change vs veh, STRN3 / RFU, ADK / Fold change vs veh, ADK / RFU, RASSF2 / Fold change vs veh, RASSF2 / RFU, WIPF1 / Fold change vs veh, WIPF1 / RFU, LARP1B / Fold change vs veh, LARP1B / RFU, RASA1 / Fold change vs veh, RASA1 / RFU, RB1 / Fold change vs veh, RB1 / RFU, PPFIA1 / Fold change vs veh, PPFIA1 / RFU, MAT2A / Fold change vs veh, MAT2A / RFU, CCT5 / Fold change vs veh, CCT5 / RFU, WDR92 / Fold change vs veh, WDR92 / RFU, CUX1 / Fold change vs veh, CUX1 / RFU, TTC7A / Fold change vs veh, TTC7A / RFU, TMEM135 / Fold change vs veh, TMEM135 / RFU, DEPTOR / Fold change vs veh, DEPTOR / RFU, CPM / Fold change vs veh, CPM / RFU, DNAJB6 / Fold change vs veh, DNAJB6 / RFU, CACNA2D3 / Fold change vs veh, CACNA2D3 / RFU, DTX4 / Fold change vs veh, DTX4 / RFU, TFCP2 / Fold change vs veh, TFCP2 / RFU, GMCL1 /// GMCL1P1 / Fold change vs veh, GMCL1 /// GMCL1P1 / RFU, AEBP2 / Fold change vs veh, AEBP2 / RFU, SNHG1 /// SNORD22 /// SNORD25 /// SNORD26 /// SNORD27 /// SNORD28 /// SNORD29 /// SNORD31 / Fold change vs veh, SNHG1 /// SNORD22 /// SNORD25 /// SNORD26 /// SNORD27 /// SNORD28 /// SNORD29 /// SNORD31 / Fold change (Aza/veh), C12orf56 (ProbeSet 11735607_a_at) / Fold change (ACY-1035/veh), C12orf56 (ProbeSet 11735607_a_at) / Fold change (Aza/veh), FGFR1OP (ProbeSet 11751329_s_at) / Fold change (ACY-1035/veh), FGFR1OP (ProbeSet 11751329_s_at) / Fold change (Aza/veh), VPS36 (ProbeSet 11739960_a_at) / Fold change (ACY-1035/veh), VPS36 (ProbeSet 11739960_a_at) / RFU SYPL1 (11715823_x_at) / Fold change /veh SYPL1 (11715823_x_at) / RFU IGFBP7 (11715501_s_at) / Fold change /veh IGFBP7 (11715501_s_at) / RFU REEP3 (11722064_at) / Fold change /veh REEP3 (11722064_at) / RFU IGLL1 (11728026_x_at) / Fold change /veh IGLL1 (11728026_x_at): dose or concentration left out as unconfirmed
Conditions: ProbeSet 11758170_s_at; LIST D

Q: For `Nc1ncn([C@@H]2O[C@H](CO)[C@@H](O)[C@H]2O)c(=O)n1` [azacitidine], which “Fold change vs veh, DIAPH2” value is on record?
A: 0.72
